This is an account of results in patent publication US9499493B2, “2,4-pyrimidinediamine compounds and their uses” (Rigel Pharmaceuticals, Inc., priority 2002, dated 2016).

What is called IC50 is the concentration at which inhibition is half-maximal.

The subject of assay [1] is cultured human mast cells (CHMC). The assay can be described thus: CHMC low cell density IgE activation: tryptase assay. It counts as cell-based. The conditions noted are these: anti-IgE. The gist of the method:
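Low-density CHMC assay: donor-adjusted 1000-1500 cells/well, MT buffer, 1 hr 37° C preincubation; anti-IgE stimulus 30 min 37° C versus MT-only controls; supernatant tryptase by substrate, 30 min RT.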

Assay [2] has the same test system. The assay can be described thus: CHMC low cell density ionomycin activation: tryptase assay. Format: cell-based.

Turning to `Cc1ccc(Nc2ncc(F)c(Nc3ccc(C)c(O)c3)n2)cc1O` [R926341, N2,N4-Bis(-3-hydroxy-4-methylphenyl)-5-fluoro-2,4-pyrimidinediaminediamine], the IC50 in assay [1] is 0.875 µM; in assay [2] it was above 10 µM.
In the same order, the values of `OCCn1ncc2cc(Nc3nc(Nc4ccc5c(c4)OCCO5)ncc3F)ccc21` [R935258, N2-(3,4-Ethylenedioxyphenyl)-5-fluoro-N4-[1-(2-hydroxyethyl)indazoline-5-yl]-2,4-pyrimidinediamine] are 1.19 µM and above 10 µM.
On the same counts, the results for `CC(C)Oc1ccc(Nc2nc(Nc3ccc4c(cnn4CCO)c3)ncc2F)cc1` [R935255, 5-Fluoro-N2-[1-(2-hydroxyethyl)indazoline-5-yl]-N4-(4-isopropoxyphenyl)-2,4-pyrimidinediamine] are 0.374 µM and above 10 µM.
In the same order, the values of `CCOC(=O)c1cnc(Nc2ccc(OCC(=O)NCC(O)CO)cc2)nc1Nc1cccc(O)c1` (stereo not shown) [R925840, N2-[4-(N-2,3-Dihydroxypropylamino)carbonylmethyleneoxyphenyl]-5-ethoxycarbonyl-N4-(3-hydroxyphenyl)-2,4-pyrimidinediamine] are above 10 µM and above 10 µM.
As to `CCOC(=O)COc1ccc(Nc2nc(Nc3ccc(OCC(=O)OCC)cc3)c(NC(=O)NC3CCCC3)c(C(=O)OCC)n2)cc1` [R926588, N2,N4-Bis(4-ethoxycarbonylmethyleneoxyphenyl)-6-ethoxycarbonyl-5-(cyclopentylaminocarbonylamino)-2,4-pyrimidinediamine], the IC50 in assay [1] is 7.85 µM; in assay [2], above 10 µM.
In the same order, the values of `CCNC(=O)Oc1cccc(Nc2nc(Nc3cccc(OCC(=O)NC)c3)ncc2F)c1` [R926919] are 1.41 µM and above 10 µM.
`OCCn1ncc2ccc(Nc3ncc(F)c(Nc4ccc5c(c4)OCCO5)n3)cc21` [R935248, N4-(3,4-Ethylenedioxyphenyl)-5-fluoro-N2-[1-(2-hydroxyethyl)indazoline-6-yl]-2,4-pyrimidinediamine]: the IC50 was 1.1 µM in assay [1] and above 10 µM in assay [2].
In the same order, the values of `O=C(O)COc1cccc(Nc2ncc(F)c(Nc3cccc(O)c3)n2)c1` [R945126, N2-(3-Carboxymethyleneoxyphenyl)-5-fluoro-N4-(3-hydroxyphenyl)-2,4-pyrimidinediamine] are above 10 µM and above 10 µM.
On the same counts, the results for `CNC(=O)COc1cc(Nc2ncc(F)c(Nc3ccc4c(c3)OCCO4)n2)ccc1OC` [R926828, N4-(3,4-Ethylenedioxyphenyl)-5-fluoro-N2-[4-methoxy-3-(N-methylamino)carbonylmethyleneoxyphenyl]-2,4-pyrimidinediamine] are 0.306 µM and above 10 µM.
For `Cc1nc(COc2cccc(Nc3nc(Nc4ccc(OC(C)C)cc4)ncc3F)c2)no1` [R945138, 5-Fluoro-N2-(4-isopropoxyphenyl)-N4-[3-(5-methyl-1,2,4-oxadiazol-3-yl)methyleneoxyphenyl]-2,4-pyrimidinediamine], the IC50 in assay [1] is 1.06 µM; in assay [2], 6.73 µM.
On the same counts, the results for `CSc1nc(Nc2cccc(O)c2)nc(Nc2cccc(O)c2)c1Cl` [R926595, N2,N4-Bis(3-hydroxyphenyl)-5-chloro-6-thiomethyl-2,4-pyrimidinediamine] are 4.85 µM and above 10 µM.
On the same counts, the results for `CCOC(=O)c1cnc(Nc2cccc(OCC(=O)NC)c2)nc1Nc1ccc2c(c1)OCCO2` [R926800, 5-Ethoxycarbonyl-N4-(3,4-ethylenedioxyphenyl)-N2-[3-(N-methylamino)carbonylmethyleneoxyphenyl]-2,4-pyrimidinediamine] are 4.58 µM and above 10 µM.
On the same counts, the results for `CC1(C)Oc2ccc(Nc3nc(Nc4ccc5c(c4)NC(=O)C(F)(F)O5)ncc3F)cc2NC1=O` [R940351, N2-[(2,2-Difluoro-4H-benzo[1,4]oxazin-3-one)-6-yl]-N4-[(2,2-dimethyl-4H-benzo[1,4]oxazin-3-one)-6-yl]-5-fluoro-2,4-pyrimidinediamine] are 0.12 µM and 2.7 µM.
Regarding `CCOC(=O)CNc1cccc(Nc2ncc(F)c(Nc3cccc(O)c3)n2)c1` [R950215, N2-(Ethoxycarbonylmethyleneaminophenyl)-5-fluoro-N4-(3-hydroxyphenyl)-2,4-pyrimidinediamine], the 50% inhibitory concentration (IC50) is 0.409 µM in assay [1] and above 10 µM in assay [2].
In the same order, the values of `CC(C)(C)c1cccc(Nc2nc(Nc3cccc(OCC(=O)NCCO)c3)ncc2F)c1` [R940295, N4-(3-tert-Buthylpheny)-5-fluoro-N2-[3-(N-2-hydroxyethylamino)carbonylmethyleneoxyphenyl]-2,4-pyrimidinediamine] are 0.126 µM and 8.81 µM.
In the same order, the values of `COc1ccc(-c2ccccc2)cc1Nc1ncc(F)c(Nc2cc(-c3ccccc3)ccc2OC)n1` [R926400, N2,N4-Bis[(2-methoxy-5-phenyl)phenyl]-5-fluoro-2,4-pyrimidinediamine] are above 10 µM and above 10 µM.
On the same counts, the results for `COC(=O)c1cnc(Nc2ccc(OCC(=O)N3CCCC3)cc2)nc1Nc1ccc(OCC(=O)N2CCCC2)cc1` [R926559, 5-Methoxycarbonyl-N2,N4-bis[4-(N-pyrrolidino)carbonylmethyleneoxyphenyl)-2,4-pyrimidinediamine] are 7.7 µM and above 10 µM.
`O=C(NCCN1CCOCC1)c1cc2cc(Nc3ncc(F)c(Nc4ccc5oc(C(=O)NCCN6CCOCC6)cc5c4)n3)ccc2o1` [R950173, N2,N4-Bis[2-(2-N-morpholinoethyleneamoinocarbonyl)-benzofurane-5-yl]-5-fluoro-2,4-pyrimidinediamine]: the IC50 in assay [1] is 2.37 µM; in assay [2] it was above 10 µM.
On the same counts, the results for `Oc1cccc(Nc2nc(Nc3ccc(C(F)(F)F)c(Cl)c3)ncc2F)c1` [R926844, N2-(3-Chloro-4-trifluoromethylphenyl)-5-fluoro-N4-(3-hydroxyphenyl)-2,4-pyrimidinedimine] are 1.1 µM and above 10 µM.
In the same order, the values of `N#Cc1cnc(Nc2ccc(OCC(=O)N3CCCCC3)cc2)nc1Nc1ccc(OCC(=O)N2CCCCC2)cc1` [R925855, N2,N4-Bis[4-(N-piperidino)carbonylmethyleneoxyphenyl]-5-cyano-2,4-pyrimidinediamine] are 4.2 µM and above 10 µM.
In the same order, the values of `CC(C)(CO)c1ccc(Nc2ncc(F)c(Nc3cccc(O)c3)n2)cc1` [R935171, 5-Fluoro-N2-[4-(2-hydroxy-1,1-dimethylethyl)phenyl]-N4-(3-hydroxyphenyl)-2,4-pyrimidinediamine] are 0.536 µM and above 10 µM.
With `Oc1cccc(Nc2nc(Nc3ccc(OCc4nc(-c5ccccc5)no4)cc3)ncc2F)c1` [R935134, 5-Fluoro-N4-(3-hydroxyphenyl)-N2-[4-(3-phenyl-1,2,4-oxadiazol-5-yl)methyleneoxyphenyl]-2,4-pyrimidinediamine], the IC50 turned out to be 0.909 µM in assay [1] and 1.8 µM in assay [2].
With `Cc1cc(Nc2nc(Nc3cccc(OCC(=O)N4CCOCC4)c3)ncc2F)cc(C)c1O` [R940254, N4-(3,5-Dimethyl-4-hydroxyphenyl)-5-fluoro-N2-[3-(N-morpholino)carbonylmethyleneoxyphenyl]-2,4-pyrimidinediamine], the IC50 is 0.986 µM in assay [1] and above 10 µM in assay [2].
